Source: patent publication US20210169961A1, “HEPATOPROTECTIVE TRADITIONAL CHINESE MEDICINE COMPOSITION, EXTRACT THEREOF, AND PHARMACEUTICAL USE THEREOF” (SHUGUANG HOSPITAL AFFILIATED TO SHANGHAI UNIVERSITY OF …, priority 2018, published 2021)

Tests used:
Assay type in all cases: in vivo, human
[1] = tested on: patients with HBeAg negative chronic hepatitis B; assay: Curative effects on patients with hepatitis B, randomized controlled trial (Example 31); settings: after 30-month treatment, control group: Entecavir + placebo
[2] = tested on: CHB patients (hepatic fibrosis); assay: Curative effect on patients with hepatic fibrosis, double-blind placebo-control multicenter trial (Example 34); settings: after 12 months, treatment group: Entecavir + test sample, P<0.001
[3] = tested on: patients with advanced primary hepatocarcinoma after surgery; assay: Curative effect of the compound granules on patients with liver cancer (Example 36); settings: for patients of liver cancer recurred: test sample + Entecavir vs Entecavir

C=C1[C@H](CO)[C@@H](O)C[C@@H]1n1cnc2c(=O)[nH]c(N)nc21 [Entecavir]
ALT recurrence rate ([1]; treatment group: test sample 60 g clear extract/day + Entecavir 0.5 mg/day): 93.2% | HBsAg averagely reduced by ([1]; treatment group: test sample + Entecavir): 0.028 log IU/ml | HBeAg levels compared to those before treatment [2]: remarkably decreased | therapeutic effects on traditional Chinese medicine symptoms: invalid cases ([3]; after treatment): 65 cases | therapeutic effects on traditional Chinese medicine symptoms: patients with curative effect ([3]; after treatment): 0 patients | therapeutic effects on traditional Chinese medicine symptoms: valid cases ([3]; after treatment): 16 cases | patients with nausea and vomiting improved ([3]; among 38 patients (treatment group) / 51 patients (control group)): 15 cases | patients with tastelessness improved ([3]; among 61 patients (treatment group) / 58 patients (control group)): 25 cases | patients with stomach distension improved ([3]; among 68 patients (treatment group) / 62 patients (control group)): 35 cases | patients with fatigue and acratia improved ([3]; among 73 patients (treatment group) / 69 patients (control group)): 45 cases | patients of liver cancer recurred ([3]; at 3 months of follow-up visit): 48 patients | patients of liver cancer recurred ([3]; at 3 months of treatment): 13 patients | patients of liver cancer recurred ([3]; at 6 months of treatment): 44 patients | accumulative survival rate ([3]; treatment group: test sample 60 g clear extract/day + Entecavir 0.5 mg/day, control group: Entecavir 0.5 mg/day): 76.7%
